Legend:
[1] = molecular target: HLA-A2402 (Homo sapiens, UniProt P04439, D101N/D140Y/D185E/E176V/E190D/F33S/G103R/G107R/I119L/I121M/I306V/K335N/L105A/L180Q/L300P/N151K/N90K/Q86E/Q94H/R106L/R138H/R89G/T104I/T345S/V100E/W191G/Y123F); assay: cell-based; format: binding
How it was run: (§1)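 HMy2.CIR cells stably transfected with the HLA-A allele, acid-stripped (citrate/phosphate, pH3.3), neutralised and plated with β2-m (1 μg/mL); unlabeled peptide competes with the allele's FITC reference peptide. FITC+ cells read by flow cytometry; competitive binding % normalised to no-peptide and reference-only wells; IC50 reported.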

[2] = molecular target: HLA-A3101 (Homo sapiens, UniProt P04439, A270S/D185E/E176V/E277Q/F33T/G231S/G80R/H175R/I121M/I218V/I322F/K168Q/L300P/L318F/M331R/P217A/Q94H/R138Q/T323A/T345S/T97I/V358M); assay: Peptide competitive binding assay, transfected HMy2.CIR cells, reference ATFQFK(FITC)VER; details: 24 hours, flow cytometry
How it was run: as §1

## CC(C)C[C@H](NC(=O)[C@@H](NC(=O)[C@H](Cc1ccccc1)NC(=O)[C@@H](NC(=O)[C@@H](N)CCCCN)C(C)C)C(C)C)C(=O)NCC(=O)NCC(=O)N[C@@H](CS)C(=O)N[C@@H](CCCNC(=N)N)C(=O)O [Epitope P63]
[1]
  IC50: > 15 µM
[1]; HLA-A2402 HMy2.CIR cells, competitor peptide 5μM, 24 hours, flow cytometry
  inhibition at 5 µM: 9.68%
[1]; HLA-A2402 HMy2.CIR cells, competitor peptide 15μM, 24 hours, flow cytometry
  inhibition at 15 µM: 4.38%
[2]; HLA-A3101 HMy2.CIR cells, competitor peptide 5μM
  inhibition at 5 µM: 35.4%
[2]; HLA-A3101 HMy2.CIR cells, competitor peptide 15μM
  inhibition at 15 µM: 55.4%
[2]; transfected HMy2.CIR cells expressing HLA-A3101, unlabeled peptide competes with FITC-labeled reference peptide, class by IC50
  Affinity: inter
